The source of these data is patent US20210205223A1, “PROPELLANT-FREE FORMULATION FOR INHALATION” (priority 2020, published 2021).

Where a name gives a salt, the structure may show the parent alone.

The conditions of the data set: solution of sample 1 from soft mist inhaler; ACI 28.3 L/minute, ambient temperature, RH 90%.

Experimental: The aerodynamic particle size distribution was determined using an Andersen Scale Impactor (ACI). The soft mist inhaler was held close to the ACI inlet until no aerosol was visible. The flow rate of the ACI was set to 28.3 L/minute and was operated under ambient temperature and a relative humidity (RH) of 90%.
Fractions of the dose were deposited at different stages of the ACI, in accordance with the particle size of the fraction. Each fraction was washed from the stage and analyzed using HPLC.
The particle size distribution was expressed in terms of mass median aerodynamic diameter (MMAD) and Geometric Standard Deviation (GSD).

Consider `COc1ccc(CC(C)NCC(O)c2ccc(O)c(NC=O)c2)cc1` (centres unmarked) [Formoterol fumarate, N-[2-hydroxy-5-(1-hydroxy-2-((2-(4-methoxyphenyl)-1-methylethy-1)amino)-ethyl)phenyl] formamide], for which the “MMAD (mass median aerodynamic diameter)” value came out at 4.49 μm.
In the case of `C[N+]1(C)CCC(OC(=O)C(O)(c2ccccc2)C2CCCC2)C1.[Br-]` (centres unmarked) [Glycopyrronium bromide], the “MMAD (mass median aerodynamic diameter)” value was found to be 4.91 μm.
